Data set [1] has as its system A549 tumor (high GGT activity). Kind of data set: Intratumoral administration to subcutaneous tumor model mouse, SPECT/CT imaging (high GGT tumor). It is filed as in vivo. As to conditions: about 150 kBq intratumoral, images 30 minutes, 2 hours, 5 hours. Here is the method:
(§1) On the basis of the results of Example 2, a probe was intratumorally administered to a subcutaneous tumor model mouse, and SPECT/CT imaging was performed.
(§2) A model mouse was prepared in which A549 cells with high GGT activity were transplanted subcutaneously on the left side of the body, and H226 cells with low GGT activity were transplanted subcutaneously on the right side of the body. Into subcutaneous tumors of A549 (high GGT activity, left side) and H226 (low GGT activity, right side), gGlu-4^125I-FMA of about 150 kBq in 30 μL PBS(-) was directly administered. SPECT/CT images were acquired 30 minutes, 2 hours, and 5 hours after administration.

The subject of data set [2] is SHIN3 (high GGT activity) cells. Kind of data set: Intracellular uptake test in cells with high GGT activity, with or without GGT inhibitor GGsTop. It is filed as cell-based. The procedure: (§3) Intracellular uptake of gGlu-4^125I-FMA was evaluated using cells with high or low GGT activity and a GGT inhibitor, GGsTop, by the procedure shown in FIG. 4.
(§4) First, SHIN3 (high GGT activity) and SKOV3 (low GGT activity) cells were seeded in 12 well culture plates and incubated for 1 day. Next, the medium of each well was changed to fresh medium containing gGlu-4^125I-FMA (and GGsTop), and the cells were incubated for 6 hours. Thereafter, the medium was removed and the plates were washed three times with PBS(-). Then, the cells were collected, radioactivity from the cells was measured with a Y-counter, and the number of cells was counted.
(§5) Since there was almost no radioactivity in the third wash fraction and the radioactivity from the cell fraction was much higher than that, it is considered that the radioactivity from the cell fraction is derived from the nuclide retained in the cell.

A further data set has as its target T1, GGT (Homo sapiens, UniProt P19440).
T1 construct: purchased wako 307-50673
Kind of data set: Enzymatic reaction between gGlu-4^125I-FMA and GGT, HPLC with radiation detector. The conditions noted are these: 80 U/mL GGT, 37° C., 3.5 hours, radio-HPLC. It is filed as biochemical. The procedure: The purified gGlu-4^125I-FMA was dissolved in DPBS(-) to prepare about 5 kBq/μL. The result of the radiation detector when 20 μL of DPBS(-) was added to 5 μL of this solution and the entire amount of 25 μL was injected into the analytical HPLC is shown in the upper left of FIG. 3. Here, the analysis conditions of HPLC are exactly the same as the conditions at the time of purification in FIG. 2.
For analysis of metabolites, 40 μL of a 100 U/mL GGT solution (final concentration: 80 U/mL) was added to 10 μL of the above gGlu-4^125I-FMA solution, and the mixture was stirred at 37° C. and 500 rpm for 3.5 hours using a shaker. The result of the radiation detector when a half amount 25 μL from this reaction liquid was injected for analysis is shown in the upper left of FIG. 3. The lower right is a result of extracting 254 nm with PDA when a cold preparation of 2-amino-5-iodobenzylalcohol obtained by producing azaquinone methide after gGlu-4^125I-FMA was metabolized by GGT, and reacting azaquinone methide with water that would be the main nucleophile in this enzymatic reaction experiment was analyzed under the same analysis conditions.

In data set [3] the test system is A549-luc-C8 cells with high GGT activity (peritoneal dissemination). In words: Visualization of peritoneal metastasis by intraperitoneal administration, SPECT/CT and autoradiography. The data set is classed as in vivo, mouse. The conditions noted are these: for signals in the abdomen (SPECT/CT): 5 hours after administration. Here is the method:
Next, according to the procedure shown in the left figure of FIG. 7, peritoneal dissemination model mice were prepared, and gGlu-4^125I-FMA was intraperitoneally administered. First, A549-luc-C8 cells with high GGT activity were transplanted into the abdominal cavity of the mouse and bred for 1 week. Luciferin potassium was intraperitoneally administered, and tumor growth was confirmed by luminescence imaging using IVIS (right figure in FIG. 7). Next, gGlu-4^125I-FMA was intraperitoneally administered (to 3 MBq) to the peritoneal model mouse and a tumor-free mouse, and SPECT/CT imaging was performed by NanoSPECT/CT. […] They are shown as Maximum Intensity Projection (MIP) images.
In addition, the peritoneal dissemination model mouse in the left figure was dissected after 5 hours of imaging, and the intestines and mesentery were taken out and imaged by autoradiography (ARG) (FIG. 9). […] From this, it is considered that the signals scattered in the abdominal cavity in the SPECT/CT on the left of FIG. 8 correspond to the peritoneal dissemination.

Data set [4] deals with SKOV3 (low GGT activity) cells. Kind of data set: Intracellular uptake test in cells with low GGT activity. As to conditions: SKOV3, 6 hours incubation, gamma counter. It is filed as cell-based. Here is the method: as §3, §4, §5
The test system of data set [5] is H226 tumor (low GGT activity). In words: Intratumoral administration to subcutaneous tumor model mouse, SPECT/CT imaging (low GGT tumor). As to conditions: about 150 kBq intratumoral, images 30 minutes, 2 hours, 5 hours. The data set is classed as in vivo. Here is the method:
as §1, §2

T1 sequence (P19440 whole entry, species assumed): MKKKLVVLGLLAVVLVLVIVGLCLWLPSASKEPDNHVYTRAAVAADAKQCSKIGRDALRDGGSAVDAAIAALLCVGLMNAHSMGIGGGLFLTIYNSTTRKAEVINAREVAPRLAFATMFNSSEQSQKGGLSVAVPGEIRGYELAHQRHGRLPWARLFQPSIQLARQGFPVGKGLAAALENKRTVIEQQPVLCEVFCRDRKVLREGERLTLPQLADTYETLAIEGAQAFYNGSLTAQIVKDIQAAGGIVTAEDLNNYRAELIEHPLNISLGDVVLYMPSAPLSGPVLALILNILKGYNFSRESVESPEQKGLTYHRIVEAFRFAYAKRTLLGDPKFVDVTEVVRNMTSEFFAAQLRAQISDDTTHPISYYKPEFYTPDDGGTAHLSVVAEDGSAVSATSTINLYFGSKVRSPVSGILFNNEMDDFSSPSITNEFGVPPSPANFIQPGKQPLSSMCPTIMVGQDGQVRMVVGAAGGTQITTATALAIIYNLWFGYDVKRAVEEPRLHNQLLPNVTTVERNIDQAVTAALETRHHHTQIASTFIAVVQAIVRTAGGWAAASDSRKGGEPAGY

For `N[C@@H](CCC(=O)Nc1ccc([125I])cc1CF)C(=O)O` [gGlu-4^125I-FMA], the “radioactivity in tumor (SPECT/CT)” value is reported as “clearly remains” in data set [1] and “rapidly attenuated” in data set [5]. In data set [2] (SHIN3, 6 hours incubation, GGsTop as inhibitor, gamma counter, standardized by number of cells), the “uptake rate without inhibitor compared with the case of adding an inhibitor” value is listed as “about 30 times”. For the same compound, the “retention of incorporated probe in the cell after wash operation” value in data set [2] (three washes with PBS(-)) was “remains in the cell at a certain ratio and withstands washout”. Further, at GGT, the “metabolite formed on reaction with GGT” value is “converted to 2-amino-5-iodobenzylalcohol”. Also, in data set [3] (i.p., after 30 minutes), the “clearance of probe from abdominal cavity (SPECT/CT)” value is on record as “almost disappeared from the abdominal cavity”. The “signals in the bladder (SPECT/CT)” value in data set [3] (i.p., after 30 minutes) is on record as “many signals gathered in the bladder”. For the same compound, the “uptake in intestines and mesentery by autoradiography (ARG)” value in data set [3] (peritoneal dissemination model mouse dissected after 5 hours of imaging) is on record as “uptake of radionuclides was observed in agreement with minute peritoneal dissemination”. Besides, the “signals in the abdomen (SPECT/CT)” value is reported as “only scattered signals remained in the abdomen” in data set [3] (peritoneal dissemination model mouse, i.p.) and “not observed” in data set [3] (tumor-free mouse, i.p.). Also, the uptake rate entry in data set [4] was “suppressed to be low”.
